Laboratory results as given in PMC9088798, “An Approach to Derive Functional Peptide Inhibitors of Transcription Factor Activity” (JACS Au, 2022).

Tests used:
[1] = test system: cJun bZIP / TRE sites in TRE-mDHFR gene; assay: Transcription block survival (TBS) colony counting in E. coli; format: cell-based, human cJun, expressed in E. coli
Method: Figure 3 Transcription block survival (TBS) assay to derive functionally active cJun inhibitors. (A) Schematic illustrating the design and operation of TBS. (B) Controlled numbers of E. coli expressing the indicated proteins were plated on selective media and growth rates were calculated by counting colony-forming units. […] (2) A small effect on colony numbers is observed when cJun bZIP is additionally expressed. (3) TRE-mDHFR can replace the inhibited ecDHFR with colony count lower than for WT as expected. […] Although (6) cFos LZ and (7) FosW are known cJun-binders, they are unable to effectively dissociate the cJun bZIP from TRE DNA. However, (8) A-FosW and the TBS-derived hit (9) HingeW remove TRE-mDHFR transcriptional blocks to restore cell survival. Bar charts represent averages of three experimental repeats. Errors are shown as one standard deviation. Selected P values from a t-test are indicated (*P ≤ 0.05; **P ≤ 0.01; ****P ≤ 0.0001) with values for all possible comparisons within the bar chart reported in Figure S7. Serial dilutions were used to quantify colony numbers where required. Also shown are representative plate images and schematics to illustrate the effect upon TRE-mDHFR transcription. […]
Library Construction and TBS Assay: Library inserts were produced using PCR fill-in reactions from synthesised primers (Sigma) with degenerate codons at the desired positions to produce the correct residue options. The library was subcloned using SacI and AscI sites into the pET24a plasmid containing A-FosW. The primers used were cJun- […]
-3’ and cJun-Hinge-Lib_R: 5’-
-3’. The library DNA was transformed into NEB 10-beta electrocompetent E. coli cells. The following equation was utilised to determine library […]
coverage by the number of single colonies: where E is the percentage […] of the library missing, m is the number of colonies collected and n is the library size. This […]
covered. Library DNA quality was assessed by sequencing both the DNA pool and a number of single colonies to show degenerate codons in the correct positions in the pool and to show a diversity of library members from single colonies. The pool of library DNA was transformed into BL21 Gold cells already containing pES300d-TRE-mDHFR and […]
(§1) µM) alongside ampicillin, kanamycin and chloramphenicol to maintain the required plasmids, and IPTG (1 mM) to induce protein expression. The library transformants were […]
however a lower stringency is used initially before selection is increased in later steps.
Colonies from this first round of selection were pooled and serially grown in liquid culture at starting OD600 of 0.05 and grown at 37°C with shaking at 200 rpm until the OD600 […]
increased to the optimum 4 µM in subsequent passages. Bacteria containing the most effective functional antagonists were expected to produce higher levels of TRE-mDHFR which provides a growth advantage, and these will dominate the culture. At each passage step, a sample of the culture was plated on LB agar (supplemented with antibiotics to maintain plasmids) to select and sequence individual colonies, and a DNA pool was also sequenced. This allows the occurrence of library members to be monitored as winner sequences are selected for. Assay Validation experiments utilised a modified assay methodology whereby overnight cultures from glycerol stocks of the Control Strains (Figure S6) were diluted to OD600=0.5 and 50 µL was plated on a selective M9 minimal […]

[2] = CD spectroscopy of single components (helicity); format: physicochemical; settings: 20 °C, 10 μM, 150 mM potassium phosphate, 150 mM KF, 5 mM TCEP, pH 7.4
Method: Figure 5 TBS winner peptide HingeW binds cJun preferentially over A-FosW. CD spectra (20 °C) show the binding of cJun to either (A) HingeW or (B) A-FosW. […] However, the effect is larger for HingeW, indicating a greater increase in peptide helicity. Similarly, the thermal denaturation of cJun bound to either (C) HingeW or (D) A-FosW is right-shifted from the average of the component peptide denaturation profiles. […] CD dimer exchange spectra show (E) an increase in helicity when HingeW is mixed with the A-FosW/cJun heterodimer as the HingeW exchanges with the A-FosW due to the binding preference of cJun for HingeW and (F) no shift from the average is observed when A-FosW is mixed with the HingeW/cJun heterodimer, indicating no change in dimer populations. Arrows are shown to highlight the shift from the average at 190 and 222 nm. In all experiments, the total sample peptide concentration was fixed to 10 μM, using equimolar concentrations of each component peptide to remove concentration-dependent effects. […]
as §1
increased to the optimum 4 µM in subsequent passages. […] This allows the occurrence of library members to be monitored as winner sequences are selected for. […]

## LEQRAEELARENEELEKEAEELEQELDELQAEIEQLEERNYALRKEIEDLQKQLEKL [A-FosW, N-terminal AS and C-terminal GAP caps, 6xHis-tagged]
[1]; TRE-mDHFR + cJun bZIP + peptide, M9 + 4 μM TMP + 1 mM IPTG, average of three experimental repeats
  colony numbers restored relative to TRE-mDHFR only: 60%
[2]
  Fraction helicity of single component: 40.1%

## cJun bZIP: human cJun bZIP domain, Arg252 to Leu308 (target protein)
[1]; M9 minimal media + 4 μM TMP + 1 mM IPTG, TRE-mDHFR + cJun bZIP, P ≤ 0.0001, average of three experimental repeats
  reduction in colony counts on expression of cJun bZIP with TRE-mDHFR: 21 fold
[1]; M9 minimal media + 4 μM TMP + 1 mM IPTG, WT-mDHFR + cJun bZIP vs WT-mDHFR, P ≤ 0.05, three experimental repeats
  reduction in colony counts on expression of cJun bZIP without TRE sites (WT-mDHFR): 1.3 fold
[2]
  Fraction helicity of single component: 14.0%
